Bounds are passed on as bounds.

The experiment can be described thus: Neuroprotective activity in human MC65 cells cultured in TC-deficient medium assessed as inhibition of TC-deficiency induced cell death by measuring increase in cell viability measured after 72 hrs by MTT assay. In kind it is functional, cell-based. To be noted: MC65, 72 h.
As for `COc1ccc2[nH]cc(CCNC(=O)CC(=O)CCc3ccc(O)cc3)c2c1`, the half-maximal effective concentration (EC50) came out at 32.6 nM.

Regarding `O=C(/C=C/c1ccc(O)cc1)CC(=O)NCCc1c[nH]c2ccc(O)cc12`, the EC50 was found to be 178 nM.

Regarding `COc1ccc2[nH]cc(CCNC(=O)CC(=O)CCc3ccc(F)cc3)c2c1`, the EC50 worked out at 33 nM.

Consider `C#CCOc1ccc2[nH]cc(CCNC(=O)CC(=O)CCc3ccc(O)cc3)c2c1`, for which the EC50 came to 32 nM.

Regarding `COc1ccc2[nH]cc(CCNC(=O)CC(=O)/C=C/c3ccc4c(c3)OCO4)c2c1`, the EC50 is over 3000 nM.

For `COc1ccc2[nH]cc(CCNC(=O)CC(=O)/C=C/c3ccncc3)c2c1`, the EC50 is over 3000 nM.

Regarding `C#CCOc1ccc2[nH]cc(CCNC(=O)CC3(CCc4ccc(O)cc4)N=N3)c2c1`, the EC50 turned out to be 26.1 nM.

On to `COc1ccc2[nH]cc(CCNC(=O)CC3(CCc4ccc(O)cc4)N=N3)c2c1`, for which the EC50 turned out to be 56.2 nM.

Take `COc1ccc(CCC(=O)CC(=O)NCCc2c[nH]c3ccc(OC)cc23)cc1`: the EC50 was 490 nM.

Regarding `[N-]=[N+]=Nc1ccc2[nH]cc(CCNC(=O)CC(=O)CCc3ccc(O)cc3)c2c1`, the concentration giving a half-maximal response (EC50) was determined as 16.5 nM.

For `COc1ccc2[nH]cc(CCNC(=O)CC(=O)/C=C/c3ccco3)c2c1`, the EC50 is 228 nM.

On to `Nc1ccc2[nH]cc(CCNC(=O)CC(=O)CCc3ccc(O)cc3)c2c1`, for which the EC50 was over 3000 nM.

As to `COc1ccc2[nH]cc(CCNC(=O)CC(=O)/C=C/c3ccoc3)c2c1`, the EC50 was determined as 336 nM.

On to `COc1ccc2[nH]cc(CCNC(=O)CC(=O)/C=C/c3ccc(N(C)C)cc3)c2c1`, for which the EC50 is 976 nM.

Consider `O=C(CCc1ccc(O)cc1)CC(=O)NCCc1c[nH]c2ccc([N+](=O)[O-])cc12`, for which the EC50 was determined as 500 nM.

For `O=C(CCc1ccc(O)cc1)CC(=O)NCCc1c[nH]c2ccc(O)cc12`, the EC50 came to 364 nM.

In the case of `COc1ccc2[nH]cc(CCNC(=O)CC(=O)/C=C/c3cccnc3)c2c1`, the EC50 was over 3000 nM.

Consider `COc1ccc2[nH]cc(CCNC(=O)CC(=O)/C=C/c3ccc(O)cc3)c2c1`, for which the EC50 is 29 nM.

Turning to `COc1ccc(CCC2(CC(=O)NCCc3c[nH]c4ccc(OC)cc34)N=N2)cc1`, the EC50 is over 3000 nM.

In the case of `COc1ccc2[nH]cc(CCNC(=O)CC(=O)/C=C/c3ccc(F)cc3)c2c1`, the EC50 was found to be 32.8 nM.

With `COc1ccc2[nH]cc(CCNC(=O)C3CCC/C(=C\c4ccc(O)cc4)C3=O)c2c1` (racemic), the EC50 is 224 nM.

Turning to `COc1ccc2[nH]cc(CCNC(=O)C3CC/C(=C\c4ccc(O)cc4)C3=O)c2c1` (racemic), the 50% effective concentration (EC50) was 127 nM.

For the molecule `O=C(CC(O)CCc1ccc(O)cc1)NCCc1c[nH]c2ccc(O)cc12` (racemic), the concentration giving a half-maximal response (EC50) worked out at 9.2 nM.

As to `COc1ccc2[nH]cc(CCNC(=O)C3CCC(Cc4ccc(O)cc4)C3=O)c2c1` (racemic), the EC50 was over 3000 nM.

In the case of `COc1ccc2[nH]cc(CCNC(=O)C3CCCC(Cc4ccc(O)cc4)C3=O)c2c1` (racemic), the EC50 was over 3000 nM.

These data come from ChEMBL document CHEMBL4811265, “Structural understanding of 5-(4-hydroxy-phenyl)-N-(2-(5-methoxy-1H-indol-3-yl)-ethyl)-3-oxopentanamide as a neuroprotectant for Alzheimer's disease” (Bioorg Med Chem Lett, 2021).
